How the values were obtained:
[1] = molecular target: T1, PR (progesterone receptor) (Homo sapiens, UniProt P06401); test: Relative binding activity (RBA) at PR, progesterone = 100%; settings: by Kaufmann
T1 sequence (P06401 1-933): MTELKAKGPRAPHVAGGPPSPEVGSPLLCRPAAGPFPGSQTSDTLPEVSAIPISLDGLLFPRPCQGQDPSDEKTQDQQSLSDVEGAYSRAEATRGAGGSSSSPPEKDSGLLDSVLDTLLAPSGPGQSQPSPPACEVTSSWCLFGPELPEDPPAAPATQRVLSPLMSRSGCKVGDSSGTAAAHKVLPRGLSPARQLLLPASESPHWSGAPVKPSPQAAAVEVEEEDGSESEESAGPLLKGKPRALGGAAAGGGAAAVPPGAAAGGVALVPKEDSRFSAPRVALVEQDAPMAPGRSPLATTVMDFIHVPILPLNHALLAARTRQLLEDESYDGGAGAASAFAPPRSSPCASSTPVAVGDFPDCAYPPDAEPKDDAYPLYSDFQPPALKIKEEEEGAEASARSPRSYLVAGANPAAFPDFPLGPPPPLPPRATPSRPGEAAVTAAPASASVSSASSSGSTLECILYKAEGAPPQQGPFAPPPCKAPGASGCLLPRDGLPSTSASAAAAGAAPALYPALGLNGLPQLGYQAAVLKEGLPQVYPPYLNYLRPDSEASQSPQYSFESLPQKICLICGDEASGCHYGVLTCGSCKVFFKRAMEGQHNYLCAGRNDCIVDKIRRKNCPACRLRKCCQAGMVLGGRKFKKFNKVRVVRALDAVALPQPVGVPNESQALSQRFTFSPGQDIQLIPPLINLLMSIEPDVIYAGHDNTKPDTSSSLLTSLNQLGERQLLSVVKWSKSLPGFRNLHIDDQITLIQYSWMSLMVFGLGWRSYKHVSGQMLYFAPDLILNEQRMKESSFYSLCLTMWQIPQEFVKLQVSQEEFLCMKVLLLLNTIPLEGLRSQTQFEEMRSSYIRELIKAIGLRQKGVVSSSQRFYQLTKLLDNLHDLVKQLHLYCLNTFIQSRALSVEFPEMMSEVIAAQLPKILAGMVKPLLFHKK

[2] = molecular target: T2, GR (Homo sapiens, UniProt P04150); test: Relative binding activity (RBA) at GR, dexamethasone = 100%; settings: by Kaufmann
T2 sequence (P04150 1-777): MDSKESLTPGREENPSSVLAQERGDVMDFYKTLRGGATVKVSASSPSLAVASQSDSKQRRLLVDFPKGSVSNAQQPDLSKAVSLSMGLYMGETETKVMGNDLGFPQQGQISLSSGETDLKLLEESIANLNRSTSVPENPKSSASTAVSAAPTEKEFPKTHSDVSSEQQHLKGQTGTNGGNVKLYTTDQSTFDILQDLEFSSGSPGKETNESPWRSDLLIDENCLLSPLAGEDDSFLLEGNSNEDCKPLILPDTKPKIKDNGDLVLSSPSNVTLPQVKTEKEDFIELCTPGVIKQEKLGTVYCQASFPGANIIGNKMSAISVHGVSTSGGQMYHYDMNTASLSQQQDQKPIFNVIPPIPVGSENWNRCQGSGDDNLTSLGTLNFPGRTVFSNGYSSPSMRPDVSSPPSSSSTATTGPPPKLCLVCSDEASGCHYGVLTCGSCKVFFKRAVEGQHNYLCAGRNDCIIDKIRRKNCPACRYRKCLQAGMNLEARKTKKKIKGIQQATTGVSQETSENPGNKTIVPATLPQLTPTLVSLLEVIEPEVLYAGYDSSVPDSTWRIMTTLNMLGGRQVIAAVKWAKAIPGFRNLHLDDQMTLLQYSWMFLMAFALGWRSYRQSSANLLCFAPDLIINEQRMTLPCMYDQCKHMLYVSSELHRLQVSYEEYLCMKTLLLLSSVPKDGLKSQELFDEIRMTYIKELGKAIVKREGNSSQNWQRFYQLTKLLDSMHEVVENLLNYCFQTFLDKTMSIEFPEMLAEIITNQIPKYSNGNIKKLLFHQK

| RBA (%) PR [1] [%] | RBA (%) GR [2] [%] | Structure (SMILES) |
| --- | --- | --- |
| 345 | 154 | CCNC(=O)O/N=C/c1ccc([C@H]2C[C@@]3(C)[C@@H](CC[C@]3(COC)OC)[C@@H]3CCC4=CC(=O)CCC4=C32)cc1 [J956, 4-[17β-Methoxy-17α-(methoxymethyl)-3-oxoestra-4,9-dien-11β-yl]benzaldehyd-(1E)-[O-(ethylamino)carbonyl]oxim] |
| 302 | 78 | COC[C@]1(OC)CC[C@H]2[C@@H]3CCC4=CC(=O)CCC4=C3[C@@H](c3ccc(/C=N/O)cc3)C[C@@]21C [J867, 4-[17β-Methoxy-17α-(methoxymethyl)-3-oxoestra-4,9-dien-11β-yl]benzaldehyd-(1E)-oxim] |
| 164 | 42 | CCSC(=O)O/N=C/c1ccc([C@H]2C[C@@]3(C)[C@@H](CC[C@]3(COC)OC)[C@@H]3CCC4=CC(=O)CCC4=C32)cc1 [J1042, 4-[17β-Methoxy-17α-(methoxymethyl)-3-oxoestra-4,9-dien-11β-yl]benzaldehyd-(1E)-[O-(ethylthio)carbonyl]oxim] |

— US8193252B1, “Mesoprogestins (progesterone receptor modulators) for the treatment and prevention of benign hormone dependent gynecological disorders” (Bayer Pharma AG, priority 1999, dated 2012)
